From US8148392B2, “2-indolyl imidazo [4,5-d] phenanthroline derivatives and their use in the treatment of cancer” (Lorus Therapeutics Inc., priority 2005, dated 2012) come the findings set out here.

The structures appear in SMILES notation. pIC50: −log10 of the molar value.

The subject of the first assay is human colon carcinoma HT-29 cells. Nature of the assay: XTT cell proliferation assay, HT-29. Format: cell-based. As to conditions: HT-29, XTT, as Example 13, Table 7. As for the experimental part: The ability of compounds of Formula I to inhibit the proliferation of human colon carcinoma HT-29 cells was tested as follows. HT-29 colon carcinoma cells used in this example and subsequent examples were maintained as a monolayer in a growth medium; McCoy's 5A modified medium (Sigma, St. Louis, Mo.), supplemented with 2 mM L-glutamine (Gibco, Grand Island, N.Y.), 10% fetal bovine serum (FBS) (Multicell, WISENT Inc. St-Bruno, QC), antibiotic-antimycotic (Multicell), at 37° C. in a 5% CO2-humidified incubator. Cells were transferred onto 150 mm tissue culture plates and grown until sub-confluency (70-80%) prior to their use. The in vitro antiproliferative activity of compounds was evaluated by incubating the cells with varying concentrations of the compounds as shown in Table 1 for 6-7 days. The efficacy of these compounds in this cell proliferation assay was measured based in the ability of live cells to reduce the tetrazolium salt XTT to orange colored compounds of formazan (XTT cell proliferation kit II, Roche Applied Science, Montreal, QC).
The ability of compounds of Formula I to inhibit the proliferation of human colon carcinoma HT-29 cells was tested as described above in Example 13.
Cell growth inhibition IC50 (μM) by compounds of Formula I was tested on various cancer cell types by XTT cell proliferation assay. The growth inhibitory effects of the compounds of Formula I as shown below for the melanoma cell line SK-MEL-2 were reproducible by Lorus Therapeutics Inc.
On the technique in general: Tetrazolium assays rely on reduction of a dye to a coloured formazan, in cell work by metabolically active cells.
On to `Cn1c(N2CCOCC2)c(-c2nc3c4cccnc4c4ncccc4c3[nH]2)c2ccccc21` [Compound 59], for which the IC50 (in general, the concentration that inhibits the measured activity by half) was found to be 0.6 µg/mL.
As for `O=C(Cn1cc(-c2nc3c4cccnc4c4ncccc4c3[nH]2)c2ccccc21)N1CCCC1` [Compound 46], the IC50 was >5-25< μg/ml.
Still for that read-out and setting: the figure for `Cc1c(-c2nc3c4cccnc4c4ncccc4c3[nH]2)c2ccccc2n1CC(=O)N1CCCC1` [Compound 43] is >5-25< μg/ml; for `Fc1ccc2[nH]c(C34CC5CC(CC(C5)C3)C4)c(-c3nc4c5cccnc5c5ncccc5c4[nH]3)c2c1` [Compound 72] it is 0.18 µg/mL; for `c1ccc2c(c1)c(-c1nc3c4cccnc4c4ncccc4c3[nH]1)cn2C1CCCC1` [Compound 53] it is 0.19 µg/mL.
The molecule `CC1CCCC(C)N1C(=O)Cn1cc(-c2nc3c4cccnc4c4ncccc4c3[nH]2)c2ccccc21` (stereo not drawn) [Compound 50] showed an IC50 of 2.3 µg/mL.
On to `Clc1ccc(-c2[nH]c3ccccc3c2-c2nc3c4cccnc4c4ncccc4c3[nH]2)cc1` [Compound 42], for which the half-maximal inhibitory concentration (IC50) amounted to 0.31 µg/mL.
In turn, `Cc1c(-c2nc3c4cccnc4c4ncccc4c3[nH]2)c2ccccc2n1CC(=O)N1CCCCC1` [Compound 57] showed an IC50 of 5 µg/mL.
For the molecule `CC(C)(C)c1[nH]c2c(F)cccc2c1-c1nc2c3cccnc3c3ncccc3c2[nH]1` [Compound 88], the IC50 worked out at 0.38 µg/mL.
On the same count and under the same terms, under `Cc1cc(Cl)cc2c(-c3nc4c5cccnc5c5ncccc5c4[nH]3)c(C(C)(C)C)[nH]c12` [Compound 84] stands 0.39 µg/mL; under `CN(C)S(=O)(=O)c1ccc2[nH]c(Cl)c(-c3nc4c5cccnc5c5ncccc5c4[nH]3)c2c1` [Compound 76], above 25 µg/mL; under `CC(C)(C)c1[nH]c2ccc(Br)cc2c1-c1nc2c3cccnc3c3ncccc3c2[nH]1` [Compound 87], 0.42 µg/mL.
The same measure, in the same setting: the figure for `O=C(Cn1cc(-c2nc3c4cccnc4c4ncccc4c3[nH]2)c2cc(Br)ccc21)N1CCCC1` [Compound 49] is >5-25< μg/ml.
Still for that read-out and setting: under `O=C(Cn1cc(-c2nc3c4cccnc4c4ncccc4c3[nH]2)c2ccccc21)N1CCCCC1` [Compound 47] stands 5 µg/mL; under `c1ccc2c(-c3nc4c5cccnc5c5ncccc5c4[nH]3)c[nH]c2c1` [Compound 1], 2 µg/mL.
In the case of `CC(C)(C)c1ccc2[nH]c(C3CCCC3)c(-c3nc4c5cccnc5c5ncccc5c4[nH]3)c2c1` [Compound 73], the IC50 amounted to 0.22 µg/mL.
Molecule `CC(C)c1[nH]c2ccccc2c1-c1nc2c3cccnc3c3ncccc3c2[nH]1` [Compound 79] returned an IC50 of 0.65 µg/mL.
Same read-out and setting: the figure for `O=C(Cn1cc(-c2nc3c4cccnc4c4ncccc4c3[nH]2)c2ccccc21)N1CCOCC1` [Compound 44] is >5-25<, μg/ml.
On the same count and under the same terms, the figure for `CC1CCN(C(=O)Cn2cc(-c3nc4c5cccnc5c5ncccc5c4[nH]3)c3ccccc32)CC1` [Compound 51] is 5 µg/mL.
The same measure, in the same setting: the figure for `Cc1c(-c2nc3c4cccnc4c4ncccc4c3[nH]2)c2cc(F)ccc2n1Cc1ccccc1` [Compound 77] is 0.24 µg/mL; for `O=C(Cn1cc(-c2nc3c4cccnc4c4ncccc4c3[nH]2)c2ccccc21)N1CCCCCC1` [Compound 45] it is 7 µg/mL.
Regarding `CC(C)(C)c1[nH]c2ccc(-c3ccccc3)cc2c1-c1nc2c3cccnc3c3ncccc3c2[nH]1` [Compound 68], the IC50 was found to be 0.34 µg/mL.
On the same count and under the same terms, the figure for `Cc1ccc(Cl)c2c(-c3nc4c5cccnc5c5ncccc5c4[nH]3)c(C(C)(C)C)[nH]c12` [Compound 85] is 0.24 µg/mL; for `CC(C)(C)c1[nH]c2ccc(F)cc2c1-c1nc2c3cccnc3c3ncccc3c2[nH]1` [Compound 65] it is 0.35 µg/mL.
`O=S(=O)(c1ccc2[nH]c(Cl)c(-c3nc4c5cccnc5c5ncccc5c4[nH]3)c2c1)N1CCOCC1` [Compound 75] yielded an IC50 above 25 µg/mL.
On to `CC(C)c1[nH]c2ccc(F)cc2c1-c1nc2c3cccnc3c3ncccc3c2[nH]1` [Compound 82], for which the IC50 is 0.61 µg/mL.
Same read-out and setting: the figure for `Cc1ccccc1-c1[nH]c2ccc(C(C)(C)C)cc2c1-c1nc2c3cccnc3c3ncccc3c2[nH]1` [Compound 74] is 0.18 µg/mL; for `Cc1ccc(F)c2c(-c3nc4c5cccnc5c5ncccc5c4[nH]3)c(C(C)(C)C)[nH]c12` [Compound 83] it is 0.1 µg/mL.
Consider `CC(C)c1ccc2[nH]c(C(C)(C)C)c(-c3nc4c5cccnc5c5ncccc5c4[nH]3)c2c1` [Compound 61], for which the IC50 was found to be 0.4 µg/mL.
Same read-out and setting: the figure for `Cc1[nH]c2ccc([N+](=O)[O-])cc2c1-c1nc2c3cccnc3c3ncccc3c2[nH]1` [Compound 38] is 3.5 µg/mL; for `Cc1ccc(C)c2c(-c3nc4c5cccnc5c5ncccc5c4[nH]3)c(C34CC5CC(CC(C5)C3)C4)[nH]c12` [Compound 70] it is 0.35 µg/mL.
Same read-out and setting: the figure for `CC(C)(C)c1[nH]c2c(F)cc(F)cc2c1-c1nc2c3cccnc3c3ncccc3c2[nH]1` [Compound 66] is 0.4 µg/mL.
On the same count and under the same terms, the figure for `Cc1c(-c2nc3c4cccnc4c4ncccc4c3[nH]2)c2ccccc2n1CC(=O)N1CCCCCC1` [Compound 56] is 5 µg/mL.
As for `CC(C)(C)c1[nH]c2ccc(C#N)cc2c1-c1nc2c3cccnc3c3ncccc3c2[nH]1` [Compound 71], the IC50 is 3 µg/mL.
Still for that read-out and setting: under `CCc1ccc2[nH]c(C(C)(C)C)c(-c3nc4c5cccnc5c5ncccc5c4[nH]3)c2c1` [Compound 86] stands 0.47 µg/mL; under `c1ccc2c(-c3nc4c5cccnc5c5ncccc5c4[nH]3)c(C3CCCC3)[nH]c2c1` [Compound 81], 0.4 µg/mL.
The same measure, in the same setting: the figure for `CC(C)n1cc(-c2nc3c4cccnc4c4ncccc4c3[nH]2)c2ccccc21` [Compound 52] is 0.19 µg/mL; for `c1ccc2c(-c3nc4c5cccnc5c5ncccc5c4[nH]3)c(C3CCCCC3)[nH]c2c1` [Compound 80] it is 0.42 µg/mL.
Consider `Cc1c(-c2nc3c4cccnc4c4ncccc4c3[nH]2)c2ccccc2n1CC(=O)N1CCC(C)CC1` [Compound 55], for which the half-maximal inhibitory concentration (IC50) stood at 2.4 µg/mL.
Still for that read-out and setting: under `Cc1cccc2c(-c3nc4c5cccnc5c5ncccc5c4[nH]3)c(C(C)(C)C)[nH]c12` [Compound 62] stands below 0.1 µg/mL; under `c1ccc2c(-c3nc4c5cccnc5c5ncccc5c4[nH]3)c(C34CC5CC(CC(C5)C3)C4)[nH]c2c1` [Compound 78], 0.38 µg/mL.
The molecule `COc1ccc2c(c1)c(-c1nc3c4cccnc4c4ncccc4c3[nH]1)cn2C(C)C` [Compound 54] had an IC50 of 0.28 µg/mL.
The same measure, in the same setting: under `CC(C)(C)c1[nH]c2ccccc2c1-c1nc2c3cccnc3c3ncccc3c2[nH]1` [Compound 39] stands 0.45 µg/mL.
On the same count and under the same terms, under `CN1CCN(C(=O)Cn2cc(-c3nc4c5cccnc5c5ncccc5c4[nH]3)c3ccccc32)CC1` [Compound 58] stands “>”; under `Cn1c(-c2ccccc2)c(-c2nc3c4cccnc4c4ncccc4c3[nH]2)c2ccccc21` [Compound 18], 0.37 µg/mL.

Staying with this assay, now noted: Homo sapiens; HT-29, XTT, 6-7 days, Table 3; read-out: IC50.
On to `COc1ccc2[nH]c(C)c(-c3nc4c5cccnc5c5ncccc5c4[nH]3)c2c1` [Compound 6], for which the pIC50 (commonly the IC50 on a negative log10 scale, so that one unit is a factor of ten) was 5.85.
Same read-out and setting: under `Fc1ccc(-c2[nH]c3ccccc3c2-c2nc3c4cccnc4c4ncccc4c3[nH]2)cc1` [Compound 10] stands 6.74.

The same assay, now with this note: Homo sapiens; HT-29, XTT, as Example 13, Table 7; read-out: IC50.
As for `COc1ccc2[nH]c(C)c(-c3nc4c5cccnc5c5ncccc5c4[nH]3)c2c1` [Compound 6], the IC50 worked out at 1.4 µg/mL.
As for `Fc1ccc2[nH]cc(-c3nc4c5cccnc5c5ncccc5c4[nH]3)c2c1` [Compound 4], the concentration for half-maximal inhibition (IC50) was found to be 3.5 µg/mL.
`Fc1ccc(-c2[nH]c3ccccc3c2-c2nc3c4cccnc4c4ncccc4c3[nH]2)cc1` [Compound 10]: the half-inhibitory concentration (IC50) is 0.18 µg/mL.
The same measure, in the same setting: the figure for `Cc1[nH]c2ccc(O)cc2c1-c1nc2c3cccnc3c3ncccc3c2[nH]1` [Compound 8] is above 25 µg/mL.
